Key:
radish test crop = assay: Glasshouse crop safety trial, foliar spraying; assay type: in vivo; settings: foliar spraying at 5 leaf stage, 3.4 kg P2O5 per ha in 200 litres/ha water, assessed seven days after spraying
Experimental: Glasshouse trials were carried out in order to assess crop safety of the composition described above. The trials were carried out using a radish test crop grown in pots in a sand medium and fed via a nutrient solution. A randomised block design using 4 replicates was employed. The product was applied by foliar spraying at the 5 leaf growth stage using a rate equivalent to 10 kg/ha in 200 litres/ha water (equating to an input of 3.4 kg P2O5 per ha). […] The crop was assessed for symptoms of phytotoxicity seven days after spraying.

[1] = 75 weight % phosphoric acid; cited from earlier work

In the case of `O=P(O)(O)O` [phosphoric acid], the “Symptoms of phytotoxicity (crop damage)” value (radish test crop) is listed as “signs of crop damage (leaf burn)” and the Freezing point [1] is listed as −20 °C.
